Reference: PMC4045209, “The two common polymorphic forms of human NRH-quinone oxidoreductase 2 (NQO2) have different biochemical properties” (Febs Letters, 2014)
Where two headings read alike, the source gives them in different places.

Target: T1, NRH-quinone oxidoreductase 2 (NQO2-F47) (Homo sapiens, UniProt P16083, L47F)
T1 sequence (P16083 1-231 L47F): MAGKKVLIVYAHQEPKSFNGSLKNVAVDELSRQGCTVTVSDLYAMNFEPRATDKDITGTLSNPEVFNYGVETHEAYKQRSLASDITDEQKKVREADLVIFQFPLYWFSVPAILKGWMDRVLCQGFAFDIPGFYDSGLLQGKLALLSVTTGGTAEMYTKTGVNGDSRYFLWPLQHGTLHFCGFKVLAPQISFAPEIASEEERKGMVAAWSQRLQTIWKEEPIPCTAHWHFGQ
Test: thermal scanning fluorimetry KD,app (FAD fluorescence)
Format: binding

Structure (SMILES)	Kd (read-out: Kd) [mM]	Kd [mM]
O=c1oc2ccccc2c(O)c1Cc1c(O)c2ccccc2oc1=O [dicoumarol]	0.0337 ± 0.0026	
NC(=O)c1cccnc1 [nicotinamide]		14.4 ± 1.1
